Experiment in all cases: DTP human tumour cell line panel, 48 h
Test [1] deals with IGROV-1.
Test [2] has as its system RXF 393.
Test [3] concerns LOX IMVI.
Test [4] relates to NCI-H23.
For test [5], the system named is OVCAR-4.
In test [6] the test system is SK-MEL-2.
For test [7], the system named is SK-MEL-5.
The subject of test [8] is CCRF-CEM.
Test [9] concerns NCI-H522.
Test [10] deals with NCI/ADR-RES.
Test [11] has as its system ACHN.
For test [12], the system named is MOLT-4.
Test [13] has as its system MDA-N.
The test system of test [14] is K562.
Test [15] has as its system CAKI-1.
Test [16] concerns SK-MEL-28.
In test [17] the test system is U-251.
For test [18], the system named is T47D.
In test [19] the test system is HCT-15.
The test system of test [20] is MDA-MB-435.

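Test compounds were applied to cells in 96-well plates for 48 hours at 5 doses. GI50 marks 50% less growth.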 The source made the active and inactive calls. Rule as the data show it: active = GI50 up to about 1.1 µM and inactive = higher. A value given as a limit tells only on which side of the number the result lay.

In general, GI50 refers to the concentration giving 50% growth inhibition. On to `O=c1oc2ccc(Cl)cc2cc1-c1cn2ccsc2n1`, for which the GI50 was 20.5 µM (inactive) in [1]; 45.8 µM (inactive) in [2]; 43.2 µM (inactive) in test [3]; 51.9 µM (inactive) in [4]; 33.4 µM (inactive) in test [5]; 50.6 µM (inactive) in test [6]. Further, the GI50 in [7] was 51.1 µM (inactive); in test [8] it was 25.8 µM (inactive); in test [9] it was 21 µM (inactive); in test [10] it was 61.1 µM (inactive); in test [11] it was 60.5 µM (inactive); in test [12] it was 24.4 µM (inactive). The GI50 in test [13] was 46 µM (inactive); in test [14], 33.5 µM (inactive); in test [15], 42.8 µM (inactive); in test [16], > 100 µM (inactive); in [17], 51.9 µM (inactive); in test [18] it was 34.5 µM (inactive). Besides, the figures for the GI50 in test [19] and in test [20] were 36.1 µM and 40.8 µM (inactive), respectively.

For `CCCCCn1c(=O)c2c(=O)[nH][nH]c2c2ccccc21`, the GI50 in test [1], in [2], in [3], in [4], in [5] and in test [6] was > 100 µM (inactive) each time. In addition, the GI50 in test [7], in [8], in [9], in test [10], in [11] and in test [12] was > 100 µM (inactive) in each case. Further, the GI50 in test [13], in [14], in test [15], in test [16], in [17] and in test [18] was > 100 µM (inactive) throughout. The GI50 in [19] was above 100 µM; in [20] it was > 100 µM (inactive).

On to `CCCCn1c2c(n(CCCC)c1=S)-c1c(n(CCCC)c(=S)n1CCCC)S[Se][Se]S2`, for which the GI50 in test [1] is 2.42 µM (inactive); in test [2], 3.96 µM (inactive); in [3], 6.05 µM (inactive); in test [4] it was 13.2 µM (inactive); in test [5], 0.815 µM (active); in [6], 8.75 µM (inactive). Moreover, the GI50 in test [7] was 5.85 µM (inactive); in [8], 0.26 µM (active); in [9] it was 0.171 µM (active); in test [10] it was 21.1 µM (inactive); in [11], 2.67 µM (inactive); in [12], 2.87 µM (inactive). Further, the GI50 in test [13] was 8.83 µM (inactive); in test [14], 1.63 µM (inactive); in test [15] it was 1.62 µM (inactive); in test [16], 16.6 µM (inactive); in [17] it was 4.37 µM (inactive); in test [18], 0.294 µM (active). The GI50 is 2.94 µM in [19] and 4.95 µM (inactive) in [20].

Take `CO[P@]1(=O)O[C@@H](c2ccccc2)[C@H](O)[C@@]1(O)c1ccccc1`: the GI50 in test [1], in test [2], in test [3], in [4], in test [5] and in test [6] was > 100 µM (inactive) each time. The GI50 in [7], in [8], in test [9], in test [10], in [11] and in [12] was > 100 µM (inactive) each time. Moreover, the GI50 in [13], in test [14], in test [15], in test [16], in test [17] and in test [18] was > 100 µM (inactive) each time. Besides, the GI50 in [19] was above 100 µM; in test [20], > 100 µM (inactive).

Regarding `CCc1n[nH]c(=O)n1/N=C/c1ccc(/C=N/n2c(CC)n[nH]c2=O)cc1`, the GI50 in test [1], in test [2], in test [3], in test [4], in test [5] and in [6] was > 100 µM (inactive) each time. In addition, the GI50 in test [7], in [8], in [9], in [10], in test [11] and in [12] was > 100 µM (inactive) throughout. Further, the GI50 in test [13], in [14], in test [15], in [16], in [17] and in test [18] was > 100 µM (inactive) in each case. For the same compound, the GI50 in test [19] was above 100 µM; in test [20] it was > 100 µM (inactive).

On to `OC1c2ccccc2[C@@H]2[C@H]1[C@@H](c1ccccc1)C1(Cc3ccccc3C1O)[C@H]2c1ccccc1` (some centres undefined), for which the GI50 in test [1] is 4.37 µM (inactive); in [2] it was 2 µM (inactive); in [3], 2.49 µM (inactive); in test [4] it was 6.4 µM (inactive); in [5] it was 4.04 µM (inactive); in test [6], 7.06 µM (inactive). The GI50 in test [7] is 6.21 µM (inactive); in [8], 3.13 µM (inactive); in test [9], 3.03 µM (inactive); in test [10], 5.36 µM (inactive); in test [11], 6.37 µM (inactive); in test [12], 2.45 µM (inactive). Further, the GI50 in test [13] was 3.85 µM (inactive); in test [14], 3.02 µM (inactive); in test [15] it was 8.09 µM (inactive); in test [16], 9.55 µM (inactive); in [17], 3.92 µM (inactive); in test [18], 6.71 µM (inactive). The GI50 is 4.07 µM in test [19] and 2.82 µM (inactive) in test [20].

Consider `O=C1C=Cc2c1csc2Br`, for which the GI50 in [1] is 38.3 µM (inactive); in test [2], 71.4 µM (inactive); in test [3], 25.5 µM (inactive); in test [4], 33 µM (inactive); in test [5], 70.8 µM (inactive); in test [6], > 100 µM (inactive). Further, the GI50 in test [7] is 69.3 µM (inactive); in test [8] it was 16.9 µM (inactive); in test [9], 18.7 µM (inactive); in test [10], 33.8 µM (inactive); in test [11], 30.7 µM (inactive); in test [12], 21.3 µM (inactive). In addition, the GI50 in test [13] was 50 µM (inactive); in test [14] it was 26.5 µM (inactive); in test [15], > 100 µM (inactive); in [16] it was 63.1 µM (inactive); in test [17] it was 51.2 µM (inactive); in test [18] it was 54.5 µM (inactive). Also, the GI50 in test [19] was 28.6 µM; in test [20] it was 32.1 µM (inactive).

In the case of `O=C1Oc2ccccc2C(=O)/C1=C\Nc1nc(-c2ccc(O)c(O)c2)cs1`, the GI50 in [1] was 7.76 µM (inactive); in [2], 6.03 µM (inactive); in test [3] it was 3.55 µM (inactive); in [4], 2.81 µM (inactive); in test [5] it was 10.7 µM (inactive); in [6], 2.47 µM (inactive). Also, the GI50 was 4.8 µM (inactive) in test [7]; 1.23 µM (inactive) in test [8]; 2.05 µM (inactive) in [9]; 4.46 µM (inactive) in test [10]; 2.88 µM (inactive) in [11]; 0.447 µM (active) in [12]. For the same compound, the GI50 in test [13] is 4.98 µM (inactive); in test [14] it was 1.36 µM (inactive); in [15], 4.63 µM (inactive); in test [16], 9.12 µM (inactive); in [17] it was 5.01 µM (inactive); in test [18] it was 4.55 µM (inactive). In addition, the GI50 was 3.39 µM in test [19] and 4.88 µM (inactive) in [20].

`OCc1ccc2c(c1)CC1(C2)Cc2cc3c(cc2C1)CCC3`: the GI50 is 7.87 µM (inactive) in [1]; 2.58 µM (inactive) in [2]; 3.66 µM (inactive) in [3]; 4.3 µM (inactive) in [4]; 17.4 µM (inactive) in test [5]; 3.75 µM (inactive) in test [6]. The GI50 is 2.3 µM (inactive) in [7]; 2.74 µM (inactive) in test [8]; 3.52 µM (inactive) in [9]; 2.9 µM (inactive) in [10]; 5.31 µM (inactive) in test [11]; 4.41 µM (inactive) in test [12]. Further, the GI50 in test [13] was 0.339 µM (active); in [14], 0.585 µM (active); in test [15], 6.31 µM (inactive); in test [16], 8.3 µM (inactive); in [17] it was 2.99 µM (inactive); in test [18], 4.82 µM (inactive). The concentration for 50% growth inhibition (GI50) in test [19] was 2.92 µM; in [20], 0.204 µM (active).

As for `Cc1cc(O)c(C=O)c2c1C(=O)Oc1c(CO)c(O)c3c(c1O2)C(O)OC3=O` (centres undefined) [SLAZINIC ACID], the GI50 in test [1] was > 100 µM (inactive); in test [2] it was 87.5 µM (inactive); in test [3], 82.2 µM (inactive); in test [4], > 100 µM (inactive); in [5] it was 27.5 µM (inactive); in test [6] it was 97.1 µM (inactive). Further, the GI50 in test [7] is 34.3 µM (inactive); in test [8], 43 µM (inactive); in test [9], 42.3 µM (inactive); in [10], 44.7 µM (inactive); in [11] it was 40.1 µM (inactive); in test [12] it was 22.1 µM (inactive). Besides, the GI50 in test [13] is 66.2 µM (inactive); in test [15] it was 61.5 µM (inactive); in test [16] it was 91.8 µM (inactive); in [17], 60.5 µM (inactive); in test [18], 54.5 µM (inactive); in test [19], 55.2 µM. Besides, the GI50 in test [20] was 39.6 µM (inactive).

Values taken from ChEMBL document CHEMBL1201862, “PubChem BioAssay data set” (2004).
